This note sets out measurements from ChEMBL document CHEMBL1909046, “DrugMatrix in vitro pharmacology data”.

The target of one experiment is Melanocortin receptor 3 (Homo sapiens, UniProt P41968). Format: cell membranes, HEK293, Membrane. The settings on record: hek293. Also: in other assays of this panel Not Active means under 50% inhibition at 10 µM.
Experiment [1] can be described thus: DRUGMATRIX: Purinergic P2X radioligand binding (ligand: [3H] alpha, beta-Methylene-ATP). It is filed as cell membranes, Oryctolagus cuniculus, New Zealand albino, Urinary bladder, Membrane. To be noted: Not Active = under 50% inhibition at 10 µM.
Experiment [2] can be described thus: DRUGMATRIX: Phosphodiesterase PDE4 enzyme inhibition (substrate: [3H]cAMP + cAMP). The settings on record: u-937; Not Active = under 50% inhibition at 10 µM.
A short description of experiment [3]: DRUGMATRIX: Nicotinic Acetylcholine radioligand binding (ligand: [125I] Epibatidine). Format: cell membranes, Membrane. To be noted: imr-32; Not Active = under 50% inhibition at 10 µM.
In experiment [4] the target is T1, Muscarinic acetylcholine receptor M2 (Homo sapiens, UniProt P08172). Also: in other assays of this panel Not Active means under 50% inhibition at 10 µM.
T1 sequence (P08172 whole entry): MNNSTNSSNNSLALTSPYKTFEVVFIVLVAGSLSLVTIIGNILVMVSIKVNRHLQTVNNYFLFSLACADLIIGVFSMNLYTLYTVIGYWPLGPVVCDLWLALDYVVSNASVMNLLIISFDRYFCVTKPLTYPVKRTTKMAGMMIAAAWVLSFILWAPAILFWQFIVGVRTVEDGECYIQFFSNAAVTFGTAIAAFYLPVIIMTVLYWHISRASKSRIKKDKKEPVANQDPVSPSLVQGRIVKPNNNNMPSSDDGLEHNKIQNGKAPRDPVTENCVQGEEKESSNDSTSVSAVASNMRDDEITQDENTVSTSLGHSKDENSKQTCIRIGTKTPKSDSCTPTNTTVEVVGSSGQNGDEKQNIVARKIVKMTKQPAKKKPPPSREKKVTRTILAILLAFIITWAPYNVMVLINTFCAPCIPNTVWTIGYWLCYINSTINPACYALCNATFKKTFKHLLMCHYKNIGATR
Format: cell membranes, CHO-K1, Membrane.

Experiment [5] addresses T2, Muscarinic acetylcholine receptor M5 (Homo sapiens, UniProt P08912).
T2 sequence (P08912 whole entry): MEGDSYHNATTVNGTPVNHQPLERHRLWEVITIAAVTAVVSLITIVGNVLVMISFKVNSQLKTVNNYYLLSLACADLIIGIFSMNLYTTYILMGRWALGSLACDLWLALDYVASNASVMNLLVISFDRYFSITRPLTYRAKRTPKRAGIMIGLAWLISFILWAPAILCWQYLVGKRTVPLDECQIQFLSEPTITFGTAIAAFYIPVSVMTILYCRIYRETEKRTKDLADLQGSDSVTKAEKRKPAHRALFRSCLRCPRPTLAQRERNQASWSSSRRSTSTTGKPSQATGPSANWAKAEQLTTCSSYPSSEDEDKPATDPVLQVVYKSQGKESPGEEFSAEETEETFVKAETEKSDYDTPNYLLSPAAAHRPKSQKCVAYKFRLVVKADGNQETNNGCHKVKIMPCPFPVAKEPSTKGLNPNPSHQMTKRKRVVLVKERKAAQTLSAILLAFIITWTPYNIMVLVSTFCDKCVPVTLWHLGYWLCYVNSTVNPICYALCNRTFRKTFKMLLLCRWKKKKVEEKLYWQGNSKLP
Format: cell membranes, CHO-K1, Membrane.

As usually defined, the IC50 is the midpoint of a concentration-inhibition curve. Usually Ki stands for the equilibrium dissociation constant of an inhibitor or competing ligand from its target.

Chain of Melanocortin receptor 3 (P41968 whole entry): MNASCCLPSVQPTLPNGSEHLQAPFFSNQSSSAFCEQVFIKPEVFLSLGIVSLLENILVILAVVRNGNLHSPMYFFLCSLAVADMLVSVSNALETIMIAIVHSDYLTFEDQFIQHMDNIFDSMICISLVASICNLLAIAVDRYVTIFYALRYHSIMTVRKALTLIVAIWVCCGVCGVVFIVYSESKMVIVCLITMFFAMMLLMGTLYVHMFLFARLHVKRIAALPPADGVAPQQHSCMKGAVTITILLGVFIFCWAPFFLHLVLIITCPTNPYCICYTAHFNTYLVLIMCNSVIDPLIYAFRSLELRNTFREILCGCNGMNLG

As for `CCC1(c2ccccc2)C(=O)NC(=O)NC1=O` [PHENOBARBITAL], the IC50 result (against Melanocortin receptor 3; in experiment [1]; in experiment [2]; in experiment [3]; in experiment [4] (cho-k1); in experiment [5] (cho-k1)) was “Not Active” each time. In addition, the Ki entry in experiment [1], in experiment [2] and in experiment [3] was “Not Active” each time.
Take `Oc1ccccc1` [PHENOL]: the IC50 result (at Melanocortin receptor 3; in experiment [1]; in experiment [2]; in experiment [3]; in experiment [4] (cho-k1); in experiment [5] (cho-k1)) was “Not Active” throughout. In addition, the Ki result in experiment [1], in experiment [2] and in experiment [3] was “Not Active” each time.
In the case of `c1ccc2c(c1)Nc1ccccc1S2` [PHENOTHIAZINE], the IC50 entry (against Melanocortin receptor 3; in experiment [1]; in experiment [2]; in experiment [3]; in experiment [4] (cho-k1); in experiment [5] (cho-k1)) was “Not Active” in each case. Besides, the Ki result in experiment [1], in experiment [2] and in experiment [3] was “Not Active” in each case.
For the molecule `CCN1CCN(C(=O)N[C@@H](C(=O)N[C@@H]2C(=O)N3[C@@H]2SC(C)(C)[C@@H]3C(=O)O)c2ccccc2)C(=O)C1=O` [PIPERACILLIN], the half-maximal inhibitory concentration (IC50) entry (against Melanocortin receptor 3; in experiment [1]; in experiment [2]; in experiment [3]; in experiment [4] (cho-k1); in experiment [5] (cho-k1)) was “Not Active” throughout. For the same molecule, the inhibition constant Ki result in experiment [1], in experiment [2] and in experiment [3] was “Not Active” each time.
As to `COc1cc([C@@H]2c3cc4c(cc3[C@H](O)[C@H]3COC(=O)[C@H]23)OCO4)cc(OC)c1OC` [PODOFILOX], the IC50 entry (on Melanocortin receptor 3; in experiment [1]; in experiment [2]; in experiment [3]; in experiment [4] (cho-k1); in experiment [5] (cho-k1)) was “Not Active” throughout. In addition, the Ki entry in experiment [1], in experiment [2] and in experiment [3] was “Not Active” throughout.
For the molecule `COc1cc(NC(C)CCCN)c2ncccc2c1` (configuration not stated) [PRIMAQUINE], the IC50 entry (on Melanocortin receptor 3; in experiment [1]; in experiment [2]; in experiment [3]; in experiment [4] (cho-k1); in experiment [5] (cho-k1)) was “Not Active” each time. Moreover, the Ki result in experiment [1], in experiment [2] and in experiment [3] was “Not Active” throughout.
With `CC(CN1c2ccccc2Sc2ccccc21)N(C)C` (configuration not stated) [PROMETHAZINE], the IC50 entry was “Not Active” against Melanocortin receptor 3; “Not Active” in experiment [1]; “Not Active” in experiment [2]; “Not Active” in experiment [3]; 35 nM in experiment [4] (read-out: IC50); 4.6 nM in experiment [5] (read-out: IC50). Further, the inhibition constant Ki result was “Not Active” in experiment [1]; “Not Active” in experiment [2]; “Not Active” in experiment [3]; 12 nM in experiment [4] (read-out: Ki); 3.31 nM in experiment [5] (read-out: Ki).
With `COc1ccc(C[C@H](N)C(=O)N[C@H]2[C@@H](O)[C@H](n3cnc4c(N(C)C)ncnc43)O[C@@H]2CO)cc1` [PUROMYCIN], the IC50 entry (on Melanocortin receptor 3; in experiment [1]; in experiment [2]; in experiment [3]; in experiment [4] (cho-k1); in experiment [5] (cho-k1)) was “Not Active” throughout. Besides, the Ki entry in experiment [1], in experiment [2] and in experiment [3] was “Not Active” in each case.
As for CARBOXYMETHYLCELLULOSE, the half-maximal inhibitory concentration (IC50) entry (against Melanocortin receptor 3; in experiment [1]; in experiment [2]; in experiment [3]; in experiment [4] (cho-k1); in experiment [5] (cho-k1)) was “Not Active” in each case. Besides, the Ki entry (at Melanocortin receptor 3; in experiment [1]; in experiment [2]; in experiment [3]; in experiment [4] (cho-k1); in experiment [5] (cho-k1)) was “Not Active” throughout.
For CHROMIC CHLORIDE, the IC50 result (on Melanocortin receptor 3; in experiment [1]; in experiment [2]; in experiment [3]; in experiment [4] (cho-k1); in experiment [5] (cho-k1)) was “Not Active” in each case. The Ki entry (on Melanocortin receptor 3; in experiment [1]; in experiment [2]; in experiment [3]; in experiment [4] (cho-k1); in experiment [5] (cho-k1)) was “Not Active” each time.
As to COPPER(II) OXIDE, the IC50 entry (on Melanocortin receptor 3; in experiment [1]; in experiment [2]; in experiment [3]; in experiment [4] (cho-k1); in experiment [5] (cho-k1)) was “Not Active” throughout. In addition, the Ki entry (on Melanocortin receptor 3; in experiment [1]; in experiment [2]; in experiment [3]; in experiment [4] (cho-k1); in experiment [5] (cho-k1)) was “Not Active” throughout.
With POVIDONE, the 50% inhibitory concentration (IC50) entry (at Melanocortin receptor 3; in experiment [1]; in experiment [2]; in experiment [3]; in experiment [4] (cho-k1); in experiment [5] (cho-k1)) was “Not Active” each time. For the same molecule, the Ki entry (at Melanocortin receptor 3; in experiment [1]; in experiment [2]; in experiment [3]; in experiment [4] (cho-k1); in experiment [5] (cho-k1)) was “Not Active” throughout.
